Target: T1, Sodium- and chloride-dependent glycine transporter 1 (Homo sapiens, UniProt P48067)
T1 sequence (P48067 whole entry): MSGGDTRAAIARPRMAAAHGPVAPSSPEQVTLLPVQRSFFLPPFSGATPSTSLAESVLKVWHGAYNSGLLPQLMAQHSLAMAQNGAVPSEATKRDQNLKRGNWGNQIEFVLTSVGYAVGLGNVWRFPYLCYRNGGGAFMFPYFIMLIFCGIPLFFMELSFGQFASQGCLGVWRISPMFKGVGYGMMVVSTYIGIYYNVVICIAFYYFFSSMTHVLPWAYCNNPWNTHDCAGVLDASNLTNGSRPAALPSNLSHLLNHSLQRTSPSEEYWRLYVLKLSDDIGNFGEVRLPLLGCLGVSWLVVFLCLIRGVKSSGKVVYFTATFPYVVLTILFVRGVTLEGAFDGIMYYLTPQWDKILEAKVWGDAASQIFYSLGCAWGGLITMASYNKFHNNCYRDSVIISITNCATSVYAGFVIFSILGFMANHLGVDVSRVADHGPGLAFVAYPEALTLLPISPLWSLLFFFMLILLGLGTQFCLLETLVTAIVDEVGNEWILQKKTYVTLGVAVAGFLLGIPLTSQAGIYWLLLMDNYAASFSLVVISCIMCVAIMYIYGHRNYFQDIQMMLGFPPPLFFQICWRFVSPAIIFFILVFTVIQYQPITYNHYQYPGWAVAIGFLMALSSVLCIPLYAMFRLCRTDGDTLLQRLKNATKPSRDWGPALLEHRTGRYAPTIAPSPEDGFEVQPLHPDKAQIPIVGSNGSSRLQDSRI
Test: Radioligand Binding Assay: Radioligand binding to human GlyT1c transporter-expressing membranes was determined as described in Mezler et al., Molecular Pharmacology 74:1705-1715, 2008.

## Cn1cnc(S(=O)(=O)NCc2cc3c(cc2F)C[C@@H](N)[C@H]3Cc2ccccc2)c1 (relative stereo)
  Ki: < 10 nM

From ChEMBL document CHEMBL3886455, “Aminoindane derivatives, pharmaceutical compositions containing them, and their use in therapy” (2016)
